Laboratory results from ChEMBL document CHEMBL2331379, “Synthesis of derivatives of methyl rosmarinate and their inhibitory activities against matrix metalloproteinase-1 (MMP-1)” (Eur J Med Chem, 2013).
pIC50: −log10 of the molar value.

Assays:
Interstitial collagenase = target: T1, Interstitial collagenase (Homo sapiens, UniProt P03956); test: Inhibition of human recombinant MMP1 catalytic domain using Dnp-Pro-beta-cyclohexyl-Ala-Gly-Cys(Me)-His-Lys-(Nma)-NH2 as substrate preincubated with enzyme for 30 mins prior to substrate addition monitored for 60 mins by fluorometric assay
T1 sequence (P03956 whole entry): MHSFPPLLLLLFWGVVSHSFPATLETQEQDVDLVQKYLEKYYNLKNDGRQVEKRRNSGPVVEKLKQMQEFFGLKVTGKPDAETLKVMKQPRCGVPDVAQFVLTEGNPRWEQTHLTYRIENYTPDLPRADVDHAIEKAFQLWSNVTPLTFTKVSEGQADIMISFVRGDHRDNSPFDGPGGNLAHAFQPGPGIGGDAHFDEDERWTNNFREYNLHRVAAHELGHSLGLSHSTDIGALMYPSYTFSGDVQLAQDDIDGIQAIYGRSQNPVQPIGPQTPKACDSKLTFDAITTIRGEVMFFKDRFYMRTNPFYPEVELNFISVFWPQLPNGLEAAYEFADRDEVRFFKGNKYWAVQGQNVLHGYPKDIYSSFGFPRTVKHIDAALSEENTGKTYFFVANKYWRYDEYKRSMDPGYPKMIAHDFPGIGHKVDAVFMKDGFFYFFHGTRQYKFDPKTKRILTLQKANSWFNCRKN

Stromelysin-1 = Stromelysin-1 (Homo sapiens, UniProt P08254); test: Inhibition of MMP3 (unknown origin)
[1] = target: Macrophage metalloelastase (Homo sapiens, UniProt P39900); test: Inhibition of MMP12 (unknown origin)
[2] = target: 72 kDa type IV collagenase (Homo sapiens, UniProt P08253); test: Inhibition of MMP2 (unknown origin)
Collagenase 3 = Collagenase 3 (Homo sapiens, UniProt P45452); test: Inhibition of MMP13 (unknown origin)
[3] = target: Matrix metalloproteinase-9 (Homo sapiens, UniProt P14780); test: Inhibition of MMP9 (unknown origin)
Chain of Matrix metalloproteinase-9 (P14780 whole entry): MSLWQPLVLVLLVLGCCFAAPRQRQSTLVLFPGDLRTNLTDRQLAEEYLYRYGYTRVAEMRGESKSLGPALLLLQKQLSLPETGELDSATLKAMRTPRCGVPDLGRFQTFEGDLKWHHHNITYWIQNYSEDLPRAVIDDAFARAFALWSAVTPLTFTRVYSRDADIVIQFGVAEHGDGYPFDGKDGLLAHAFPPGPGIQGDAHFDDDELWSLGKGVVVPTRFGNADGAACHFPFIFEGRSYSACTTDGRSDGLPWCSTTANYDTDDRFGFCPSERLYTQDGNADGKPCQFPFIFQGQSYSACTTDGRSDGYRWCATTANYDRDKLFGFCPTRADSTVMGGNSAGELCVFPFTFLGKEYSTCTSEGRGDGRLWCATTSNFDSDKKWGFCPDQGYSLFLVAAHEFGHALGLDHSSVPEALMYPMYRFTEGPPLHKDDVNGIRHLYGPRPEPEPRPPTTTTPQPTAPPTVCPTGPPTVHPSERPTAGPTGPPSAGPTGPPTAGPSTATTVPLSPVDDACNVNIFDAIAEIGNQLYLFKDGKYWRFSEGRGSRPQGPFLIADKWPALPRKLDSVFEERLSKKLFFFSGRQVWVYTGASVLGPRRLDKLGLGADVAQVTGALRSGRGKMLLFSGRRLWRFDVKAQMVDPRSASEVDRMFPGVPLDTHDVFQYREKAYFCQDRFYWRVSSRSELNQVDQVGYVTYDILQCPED

Chain of Stromelysin-1 (P08254 whole entry): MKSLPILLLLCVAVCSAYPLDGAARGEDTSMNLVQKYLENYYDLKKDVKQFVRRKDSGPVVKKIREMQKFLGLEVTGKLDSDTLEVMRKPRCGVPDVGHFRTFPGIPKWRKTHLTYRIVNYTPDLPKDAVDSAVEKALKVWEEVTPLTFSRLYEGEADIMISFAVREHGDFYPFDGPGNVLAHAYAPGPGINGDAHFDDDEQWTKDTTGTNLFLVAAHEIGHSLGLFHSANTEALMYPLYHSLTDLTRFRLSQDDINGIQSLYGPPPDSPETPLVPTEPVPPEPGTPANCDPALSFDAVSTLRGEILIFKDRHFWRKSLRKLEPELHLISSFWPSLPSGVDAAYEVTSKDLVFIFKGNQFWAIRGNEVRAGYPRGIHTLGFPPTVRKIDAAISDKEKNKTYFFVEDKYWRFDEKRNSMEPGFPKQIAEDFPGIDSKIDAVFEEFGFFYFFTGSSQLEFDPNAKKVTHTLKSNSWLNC
Chain of 72 kDa type IV collagenase (P08253 whole entry): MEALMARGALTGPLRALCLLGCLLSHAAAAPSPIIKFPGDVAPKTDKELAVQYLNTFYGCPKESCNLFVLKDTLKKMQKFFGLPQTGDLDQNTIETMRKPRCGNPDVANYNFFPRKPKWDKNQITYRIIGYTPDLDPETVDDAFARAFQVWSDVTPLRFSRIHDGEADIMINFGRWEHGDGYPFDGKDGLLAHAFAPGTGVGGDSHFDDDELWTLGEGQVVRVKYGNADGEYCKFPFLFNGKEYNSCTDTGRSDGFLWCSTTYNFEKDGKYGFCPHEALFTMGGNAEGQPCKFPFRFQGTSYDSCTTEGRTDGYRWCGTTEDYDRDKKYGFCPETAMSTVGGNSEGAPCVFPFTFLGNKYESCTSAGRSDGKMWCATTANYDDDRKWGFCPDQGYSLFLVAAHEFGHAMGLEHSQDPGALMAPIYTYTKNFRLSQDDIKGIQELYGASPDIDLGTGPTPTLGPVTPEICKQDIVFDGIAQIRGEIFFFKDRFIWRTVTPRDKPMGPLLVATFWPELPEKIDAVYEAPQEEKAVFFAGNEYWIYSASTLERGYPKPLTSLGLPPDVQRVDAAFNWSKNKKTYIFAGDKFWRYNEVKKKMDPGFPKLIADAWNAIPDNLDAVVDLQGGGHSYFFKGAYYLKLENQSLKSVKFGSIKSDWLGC
Chain of Macrophage metalloelastase (P39900 whole entry): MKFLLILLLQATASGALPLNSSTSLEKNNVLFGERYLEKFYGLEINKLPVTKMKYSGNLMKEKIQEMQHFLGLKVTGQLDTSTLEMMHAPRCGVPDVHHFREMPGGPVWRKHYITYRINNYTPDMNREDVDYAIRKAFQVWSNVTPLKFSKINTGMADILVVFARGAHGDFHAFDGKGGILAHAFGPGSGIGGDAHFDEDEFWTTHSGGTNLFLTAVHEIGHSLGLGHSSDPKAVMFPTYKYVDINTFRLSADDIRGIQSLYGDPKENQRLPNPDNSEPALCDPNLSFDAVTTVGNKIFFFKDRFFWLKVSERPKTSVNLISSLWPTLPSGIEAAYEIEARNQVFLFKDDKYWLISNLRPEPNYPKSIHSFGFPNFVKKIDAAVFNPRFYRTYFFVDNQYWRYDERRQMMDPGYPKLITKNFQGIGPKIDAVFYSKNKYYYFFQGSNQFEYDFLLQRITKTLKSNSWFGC

pIC50 (Interstitial collagenase) | Compound | also measured
4.41 | COc1ccc(CC(OC(=O)/C=C/c2ccc(C(F)(F)F)cc2)C(=O)O)cc1OC (stereo not given) | –
4.27 | COc1ccc(CC(OC(=O)/C=C/c2ccccc2)C(=O)O)cc1OC (stereo not given) | –
< 4.00 | COc1ccc(CC(OC(=O)/C=C/c2ccc(C)cc2)C(=O)O)cc1OC (stereo not given) | –
4.38 | COc1ccc(CC(OC(=O)/C=C/c2ccc(F)cc2)C(=O)O)cc1OC (stereo not given) | –
4.37 | COc1ccc(CC(OC(=O)/C=C/c2ccc(Cl)cc2)C(=O)O)cc1OC (stereo not given) | –
4.97 | COc1ccc(CC(OC(=O)/C=C/c2ccc(Br)cc2)C(=O)O)cc1OC (stereo not given) | –
4.46 | COc1ccc(CC(OC(=O)/C=C/c2ccccc2F)C(=O)O)cc1OC (stereo not given) | –
4.41 | COc1ccc(CC(OC(=O)/C=C/c2ccc([N+](=O)[O-])cc2)C(=O)O)cc1OC (stereo not given) | –
5.07 | COc1ccc(CC(OC(=O)/C=C/c2ccc(-c3ccccc3)cc2)C(=O)O)cc1OC (stereo not given) | –
5.05 | COc1ccc(CC(OC(=O)/C=C/c2ccc(OCc3ccccc3)cc2)C(=O)O)cc1OC (stereo not given) | –
< 4.00 | COc1ccc(/C=C/C(=O)OC(Cc2ccc(OC)c(OC)c2)C(=O)O)cc1 (stereo not given) | –
4.86 | COc1ccc(CC(OC(=O)/C=C/c2ccc(O)c(O)c2)C(=O)O)cc1OC (stereo not given) | –
< 4.00 | COc1ccc(/C=C/C(=O)OC(Cc2ccc(OC)c(OC)c2)C(=O)O)cc1OC (stereo not given) | –
5.60 | COc1ccc(CC(OC(=O)/C=C/c2ccc(OCc3ccccc3)c(OCc3ccccc3)c2)C(=O)O)cc1OC (stereo not given) | –
< 4.00 | COc1ccc(CC(OC(=O)/C=C/c2ccc3ccccc3c2)C(=O)O)cc1OC (stereo not given) | –
< 4.00 | COc1ccc(CC(OC(=O)/C=C/c2ccc3c(c2)OCC3)C(=O)O)cc1OC (stereo not given) | –
5.12 | COc1ccc(CC(OC(=O)/C=C/c2ccc(Br)cc2)C(=O)NO)cc1OC (stereo not given) | –
5.26 | COc1ccc(CC(OC(=O)/C=C/c2ccc(-c3ccccc3)cc2)C(=O)NO)cc1OC (stereo not given) | –
5.44 | COc1ccc(CC(OC(=O)/C=C/c2ccc(OCc3ccccc3)cc2)C(=O)NO)cc1OC (stereo not given) | –
5.38 | COc1ccc(CC(OC(=O)/C=C/c2ccc(OCc3ccccc3)c(OCc3ccccc3)c2)C(=O)NO)cc1OC (stereo not given) | –
5.17 | COc1ccc(CC(OC(=O)/C=C/c2ccc3ccccc3c2)C(=O)NO)cc1OC (stereo not given) | –
4.97 | COc1ccc(CC(OC(=O)/C=C/c2ccc3c(c2)OCC3)C(=O)NO)cc1OC (stereo not given) | –
< 4.00 | C=CCOC(=O)C(Cc1ccc(OC)c(OC)c1)OC(=O)/C=C/c1ccc(C(F)(F)F)cc1 (stereo not given) | –
< 4.00 | C=CCOC(=O)C(Cc1ccc(OC)c(OC)c1)OC(=O)/C=C/c1ccc(Cl)cc1 (stereo not given) | –
< 4.00 | C=CCOC(=O)C(Cc1ccc(OC)c(OC)c1)OC(=O)/C=C/c1ccc(Br)cc1 (stereo not given) | –
< 4.00 | C=CCOC(=O)C(Cc1ccc(OC)c(OC)c1)OC(=O)/C=C/c1ccc([N+](=O)[O-])cc1 (stereo not given) | –
< 4.00 | C=CCOC(=O)C(Cc1ccc(OC)c(OC)c1)OC(=O)/C=C/c1ccc(OCc2ccccc2)cc1 (stereo not given) | –
6.40 | COc1ccc(C[C@@H](OC(=O)/C=C/c2ccc(OCc3ccccc3)c(OCc3ccccc3)c2)C(=O)O)cc1OC | pIC50 (Stromelysin-1): 5.40; pIC50 [1]: 5.68; pIC50 [2]: 5.49; pIC50 (Collagenase 3): 5.35; pIC50 [3]: 5.17
6.10 | COc1ccc(C[C@H](OC(=O)/C=C/c2ccc(OCc3ccccc3)c(OCc3ccccc3)c2)C(=O)O)cc1OC | pIC50 (Stromelysin-1): 5.47; pIC50 [1]: 5.64; pIC50 [2]: 5.52; pIC50 (Collagenase 3): 5.27; pIC50 [3]: 5.22
5.25 | O=C(/C=C/c1ccc(O)c(O)c1)O[C@H](Cc1ccc(O)c(O)c1)C(=O)O [ROSMARINIC ACID] | –
